The test system of test [1] is A549 cells. Nature of the test: Apoptotic activity by MTT analysis, A549 cells. The format is cell-based. As to conditions: 15 μM of the compound, mean±standard deviation; for cytotoxicity at 15 µM: Homo sapiens, A549, 12 h, read-out: Apoptosis (%) A549 cells. The procedure: (§1) Lung cancer cells (A549), colorectal cancer cells (HCT116), HeLa cells, liver cancer cells (HepG2), T-cell leukemia cells (Jurkat), myeloid leukemia cells (K562), breast cancer cells (MCF-7 and MDA-MB-231) and myelocytic leukemia cells ([…]) were obtained from the American Type Culture Collection (ATCC), and cultured in 10% fetal bovine serum (FBS), 50 units/mL penicillin and 50 units/mL streptomycin-added RPMI 1640 (Invitrogen). The cells were maintained in a humidified 37° C., 5% CO2 atmosphere. The anticancer activity was detected by MTT analysis. Each type of cancer cells were plated in triplicate in a 96-well microtiter plate, and cultured at 37° C. for 24 hours. The cells were treated with each of the compounds prepared above at 37° C. for 12 hours. After the culturing of the cells, 10 μL of an MTT reagent ((3-[4,5-dimethyl-2-thiazolyl]-2,5-diphenyl-2H-tetrazoliumbromide) was added to each well, and cultured for 3.5 hours. The absorbance of each sample was detected using a UV microplate reader (SpectraMax 340PC 384, Molecular Devices) at 570 nm. The detection results were measured as a mean value. The effect of each compound on apoptosis is shown in Table 1.
(§2) The A549 and HeLa cells were treated with 15 μM of the compound for 12 hours. The apoptosis was detected using MTT (mean±standard deviation).

In test [2] the test system is HeLa cells. The test is described as follows: Apoptotic activity by MTT analysis, HeLa cells. The format is cell-based. Conditions: 15 μM of the compound, mean±standard deviation; for cytotoxicity at 15 µM: Homo sapiens, HeLa, 12 h, read-out: Apoptosis (%) HeLa cells. The procedure: as §1, §2

SMILES strings stand for the structures.

Consider `CNC(=O)c1ccc(Cn2c(-c3cc(C(F)(F)F)cc(C(F)(F)F)c3)nc(-c3ccc(OC)cc3)c2-c2ccc(OC)cc2)cc1` [Example 119, 4-((2-(3,5-bis(trifluoromethyl)phenyl)-4,5-bis(4-methoxyphenyl)-1H-imidazole-1-yl)methyl)-N-methylbenzamide], for which the figures for the cytotoxicity at 15 µM in test [1] and in test [2] were 39 ± 0.76% and 90 ± 1.73%, respectively.
The corresponding values for `COC(=O)c1ccc(Cn2c(-c3cc(C(F)(F)F)cc(C(F)(F)F)c3)nc(-c3ccc(OC)cc3)c2-c2ccc(OC)cc2)cc1` [Example 120, Methyl4-((2-(3,5-bis(trifluoromethyl)phenyl)-4,5-bis(4-methoxyphenyl)-1H-imidazole-1-yl)methyl)benzoate] are 40 ± 0.49% and 53 ± 1.84%.
With `COCCNC(=O)c1ccc(Cn2c(-c3cc(C(F)(F)F)cc(C(F)(F)F)c3)nc(-c3ccc(OC)cc3)c2-c2ccc(OC)cc2)cc1` [Example 121, 4-((2-(3,5-bis(trifluoromethyl)phenyl)-4,5-bis(4-methoxyphenyl)-1H-imidazole-1-yl)methyl)-N-(2-methoxyethyl)benzamide], the values for the cytotoxicity at 15 µM in test [1] and in test [2] were 13 ± 0.38% and 19 ± 1.06%, respectively.
In the case of `COCCOC(=O)c1ccc(Cn2c(-c3cc(C(F)(F)F)cc(C(F)(F)F)c3)nc(-c3ccc(OC)cc3)c2-c2ccc(OC)cc2)cc1` [Example 122, 2-methoxyethyl 4-((2-(3,5-bis(trifluoromethyl)phenyl)-4,5-bis(4-methoxyphenyl)-1H-imidazole-1-yl)methyl)benzoate], the cytotoxicity at 15 µM stood at 58 ± 0.28% in test [1] and 57 ± 0.77% in test [2].
With `NCCOCCOCCNC(=O)c1ccc(Cn2c(-c3cc(C(F)(F)F)cc(C(F)(F)F)c3)nc(-c3ccccc3Cl)c2-c2ccccc2Cl)cc1` [Example 123, N-(2-(2-(2-aminoethoxy)ethoxy)ethyl)-4-((2-(3,5-bis(trifluoromethyl)phenyl)-4,5-bis(2-chlorophenyl)-1H-imidazole-1-yl)methyl)benzamide], the results for the cytotoxicity at 15 µM in test [1] and in test [2] were 11 ± 0.7% and 8 ± 0.76%, respectively.
In the case of `NCCOCCOCCNC(=O)c1ccc(Cn2c(-c3ccc(C(F)(F)F)cc3)nc(-c3ccccc3)c2-c2ccccc2)cc1` [Example 128, N-(2-(2-(2-aminoethoxy)ethoxy)ethyl)-4-((4,5-diphenyl-2-(4-(trifluoromethyl)phenyl)-1H-imidazole-1-yl)methyl)benzamide], the cytotoxicity at 15 µM was determined as 77 ± 0.76% in test [1] and 78 ± 1.61% in test [2].
In the same order, the values of `N=C(N)c1ccc(Cn2c(-c3cc(C(F)(F)F)cc(C(F)(F)F)c3)nc(-c3ccc(Br)cc3)c2-c2ccc(Br)cc2)cc1` [Example 181, 4-((2-(3,5-bis(trifluoromethyl)phenyl)-4,5-bis(4-bromophenyl)-1H-imidazole-1-yl)methyl)benzimidamide] are 93 ± 0.59% and 94 ± 1.26%.
In the same order, the values of `COc1cccc(-c2nc(-c3cc(C(F)(F)F)cc(C(F)(F)F)c3)n(Cc3ccc(C(=N)N)cc3)c2-c2cccc(OC)c2)c1` [Example 182, 4-((2-(3,5-bis(trifluoromethyl)phenyl)-4,5-bis(3-methoxyphenyl)-1H-imidazole-1-yl)methyl)benzimidamide] are 49 ± 0.82% and 49 ± 0.48%.
The corresponding values for `Cc1ccc(-c2nc(-c3cc(C(F)(F)F)cc(C(F)(F)F)c3)n(Cc3ccc(C(=N)N)cc3)c2-c2ccc(C)cc2)cc1` [Example 183, 4-((2-(3,5-bis(trifluoromethyl)phenyl)-4,5-ditolyl-1H-imidazole-1-yl)methyl)benzimidamide] are 56 ± 1.07% and 56 ± 0.38%.
With `N=C(N)c1ccc(Cn2c(-c3cc(C(F)(F)F)cc(C(F)(F)F)c3)nc(-c3ccccc3)c2-c2ccccc2)cc1` [Example 184, 4-((2-(3,5-bis(trifluoromethyl)phenyl)-4,5-diphenyl-1H-imidazole-1-yl)methyl)benzimidamide], the cytotoxicity at 15 µM in test [1] was determined as 79 ± 0.77%; in test [2], 79 ± 0.46%.
The corresponding values for `COc1ccc(-c2nc(-c3ccc4c(c3)-c3ccccc3C4)n(Cc3ccc(C(=N)N)cc3)c2-c2ccc(OC)cc2)cc1` [Example 185, 4-((2-(9H-fluorene-3-yl)-4,5-bis(4-methoxyphenyl)-1H-imidazole-1-yl)methyl)benzimidamide] are 42 ± 1.15% and 42 ± 0.38%.
The corresponding values for `COc1ccc(-c2nc(-c3cc(C(F)(F)F)cc(C(F)(F)F)c3)n(Cc3ccc(/C(N)=N/O)cc3)c2-c2ccc(OC)cc2)cc1` [Example 186, 4-((2-(3,5-bis(trifluoromethyl)phenyl)-4,5-bis(4-methoxyphenyl)-1H-imidazole-1-yl)methyl)-N′-hydroxybenzimidamide] are 5 ± 0.38% and 5 ± 0.27%.
On to `COc1ccc(-c2nc(-c3cc(C(F)(F)F)cc(C(F)(F)F)c3)n(CCOCCOCCN)c2-c2ccc(OC)cc2)cc1` [Example 187, 2-(2-(2-(2-(3,5-bis(trifluoromethyl)phenyl)-4,5-bis(4-methoxyphenyl)-1H-imidazole-1-yl)ethoxy)ethoxy)ethaneamine], for which the results for the cytotoxicity at 15 µM in test [1] and in test [2] were 31 ± 0.29% and 12 ± 0.92%, respectively.
In the same order, the values of `NCCOCCOCCNC(=O)c1ccc(Cn2c(-c3cc(C(F)(F)F)cc(C(F)(F)F)c3)nc(-c3ccc(F)cc3)c2-c2ccc(F)cc2)cc1` [Example 188, N-(2-(2-(2-aminoethoxy)ethoxy)ethyl)-4-((2-(3,5-bis(trifluoromethyl)phenyl)-4,5-bis(4-fluorophenyl)-1H-imidazole-1-yl)methyl)benzamide] are 12 ± 0.24% and 19 ± 0.65%.
`NCCOCCOCCNC(=O)c1ccc(Cn2c(-c3cc(C(F)(F)F)cc(C(F)(F)F)c3)nc(-c3ccc(Cl)cc3)c2-c2ccc(Cl)cc2)cc1` [Example 189, N-(2-(2-(2-aminoethoxy)ethoxy)ethyl)-4-((2-(3,5-bis(trifluoromethyl)phenyl)-4,5-bis(4-chlorophenyl)-1H-imidazole-1-yl)methyl)benzamide]: the “Apoptosis (%) A549 cells” value in test [1] (12 hours) is 81 ± 0.45%. Also, the “Apoptosis (%) HeLa cells” value in test [2] (12 hours) is 86 ± 0.64%.
For the compound `COc1ccc(-c2nc(-c3cc(C(F)(F)F)cc(C(F)(F)F)c3)n(Cc3ccc(C(=O)NCCOCCN)cc3)c2-c2ccc(OC)cc2)cc1` [Example 190, N-(2-(2-aminoethoxy)ethyl)-4-((2-(3,5-bis(trifluoromethyl)phenyl)-4,5-bis(4-methoxyphenyl)-1H-imidazole-1-yl)methyl)benzamide], the cytotoxicity at 15 µM in test [1] came to 72 ± 2.88%; in test [2], 87 ± 0.62%.
In the same order, the values of `COc1ccc(-c2nc(-c3cc(C(F)(F)F)cc(C(F)(F)F)c3)n(Cc3ccc(C(=O)NCCCCCCN)cc3)c2-c2ccc(OC)cc2)cc1` [Example 191, N-(6-aminohexyl)-4-((2-(3,5-bis(trifluoromethyl)phenyl)-4,5-bis(4-methoxyphenyl)-1H-imidazole-1-yl)methyl)benzamide] are 78 ± 2.43% and 94 ± 1.64%.
The corresponding values for `COc1ccc(-c2nc(-c3cc(C(F)(F)F)cc(C(F)(F)F)c3)n(Cc3ccc(C(=O)NCCCCCCCN)cc3)c2-c2ccc(OC)cc2)cc1` [Example 192, N-(7-aminoheptyl)-4-((2-(3,5-bis(trifluoromethyl)phenyl)-4,5-bis(4-methoxyphenyl)-1H-imidazole-1-yl)methyl)benzamide] are 80 ± 1.78% and 93 ± 0.56%.
The corresponding values for `COc1ccc(-c2nc(-c3cc(C(F)(F)F)cc(C(F)(F)F)c3)n(Cc3ccc(C(=O)NCCCCCCCCN)cc3)c2-c2ccc(OC)cc2)cc1` [Example 193] are 77 ± 1.65% and 94 ± 1.02%.
As for `COc1ccc(-c2nc(-c3cc(C(F)(F)F)cc(C(F)(F)F)c3)n(Cc3ccc(C(=O)NCCCCCCCCCN)cc3)c2-c2ccc(OC)cc2)cc1` [Example 194], the figures for the cytotoxicity at 15 µM in test [1] and in test [2] were 80 ± 1.33% and 84 ± 2.01%, respectively.
For the compound `COc1ccc(-c2nc(-c3cc(C(F)(F)F)cc(C(F)(F)F)c3)n(Cc3ccc(C(=O)NCCOCCOCCO)cc3)c2-c2ccc(OC)cc2)cc1` [Example 195, 4-((2-(3,5-bis(trifluoromethyl)phenyl)-4,5-bis(4-methoxyphenyl)-1H-imidazole-1-yl)methyl)-N-(2-(2-(2-hydroxyethoxy)ethoxy)ethyl)benzamide], the cytotoxicity at 15 µM in test [1] turned out to be 86 ± 1.29%; in test [2], 96 ± 0.98%.
Take `COc1ccc(-c2nc(-c3cc(C(F)(F)F)cc(C(F)(F)F)c3)n(Cc3ccc(C(=O)NCCOCCCOCCN)cc3)c2-c2ccc(OC)cc2)cc1` [Example 196, N-(2-(3-(2-aminoethoxy)propoxy)ethyl)-4-((2-(3,5-bis(trifluoromethyl)phenyl)-4,5-bis(4-methoxyphenyl)-1H-imidazole-1-yl)methyl)benzamide]: the cytotoxicity at 15 µM in test [1] and in test [2] was 0% each time.

(Values after patent US20160297768A1, “NOVEL IMIDAZOLE DERIVATIVES AND THERAPEUTIC USE THEREOF” (INDUSTRY-ACA-DEMIC COORPERATION FOUNDATION, YONSEI …, priority 2013, published 2016).)
